≈ marks a conversion by molar mass, not a printed value. Read-outs that look alike come from different tables or passages of the source. Each block holds one compound with its values, some of them ahead of it.
Legend:
[1] = tested on: HCT-116 colon carcinoma cell line; experiment: Cytotoxic assay on cancer cell line; assay type: cell-based
Experimental: (§1) Antimicrobial and anti-cancer tests were performed as in [80].

[2] = tested on: vancomycin-resistant E. faecium (ATCC700221) (VREF); experiment: Antimicrobial assay (MIC); assay type: cell-based
Experimental: as §1

[3] = target: Catalytic subunit of cAMP-dependent protein kinase (cDPK) (Homo sapiens, UniProt P17612); experiment: Thermal shift (thermal melt) assay, Sypro orange; assay type: binding, H. sapiens; conditions: for Kd: approximate, computed from the thermal shift
Experimental: (§2) High throughput thermal shift assays were carried out following established guidelines (Additional file 1: Table S1). Protein melting curves were obtained from samples aliquoted in 96-well plates using a RealPlex quantitative PCR instrument from Eppendorf (Eppendorf, NY, USA), with Sypro orange dye from Invitrogen as the fluorescent probe. A uniform final concentration of 5 X (supplied as a 5000 X stock solution) was used in all experiments. The dye was excited at 465 nm and emission recorded at 580 nm using the instrument’s filters. A heating ramp of 1°C/min from 25°C to 74°C was used, and one data point acquired for each degree increment. For standardization, different buffers and pH were checked. Thereafter, 100 mM HEPES pH 7.3 and 150 mM NaCl were used in all unfolding experiments. The volume of each reaction was 20 μl, and appropriate dye and protein controls were included. All experiments were done with a minimum of two replicates, with the mean value considered for further analysis. Several drugs/small molecules interact with Sypro orange and lead to aberrant signal enhancements. An additional control to rule out drug-dye interaction was carried out with all the constituents kept constant except for the protein of interest. The protein/protein-drug curves were reported after subtracting the respective dye alone/drug-dye curves.
(§3) Each melting curve was assigned a quality score (Q), the ratio of the melting-associated increase in fluorescence (ΔFmelt) to the total fluorescence range (ΔFtotal). Q = 1 is a high-quality curve, while Q = 0 indicates no thermal transition. Though an arbitrary Q value cutoff was not applied to judge curve quality, the curves were manually curated with Q values reported. […] These were ignored (see Table 1).
(§4) Subsequent to standardization, (see SI Methods), the validity of the top 1% of […]^comb’s predictions on the test set of eight diverse proteins was examined. To be conservative, we focused only on those protein/ligand pairs showing single sigmoidal thermal transition curves. The fit to Boltzmann’s equation (Eq. 1) was employed to estimate the melting temperature from the observed intensity, I.
(§5) (4) I=Imin+Imax-Imin/1+e^Tm-T/a
(§6) Imin and Imax are the minimum and maximum intensities; a denotes the slope of the curve at the transition midpoint temperate, Tm. To estimate thermodynamic parameters, both van’t Hoff and Gibbs-Helmholtz analyses were done. To estimate the approximate ligand-binding affinity at Tm, Eq. (2) from reference was used with slight modifications; ΔCp is ignored.
(§7) (5) KLTm=exp-ΔH/R1/Tm-1/To/L
(§8) KL(Tm) is the ligand association constant and [L] is the free ligand concentration at Tm ([LTm] ~ [L]total, when [L]total > > the total concentration of protein. KD is the inverse of KL(Tm).
(§9) Thermal unfolding of the eight benchmark proteins was carried out in a 20 μl reaction mix with 100 mM HEPES pH 7.3, 150 mM NaCl, 5 X Sypro orange dye, 10 μM protein and 1 mM of all the predicted ligands.

[4] = target: Nucleosome assembly protein 1 (NAP1) (Plasmodium knowlesi, UniProt A0A384KYS3); experiment: Thermal shift (thermal melt) assay, Sypro orange; assay type: binding, P. knowlesi; conditions: for Kd: approximate, computed from the thermal shift
Sequence of Nucleosome assembly protein 1 (NAP1) (A0A384KYS3 entry or part of it): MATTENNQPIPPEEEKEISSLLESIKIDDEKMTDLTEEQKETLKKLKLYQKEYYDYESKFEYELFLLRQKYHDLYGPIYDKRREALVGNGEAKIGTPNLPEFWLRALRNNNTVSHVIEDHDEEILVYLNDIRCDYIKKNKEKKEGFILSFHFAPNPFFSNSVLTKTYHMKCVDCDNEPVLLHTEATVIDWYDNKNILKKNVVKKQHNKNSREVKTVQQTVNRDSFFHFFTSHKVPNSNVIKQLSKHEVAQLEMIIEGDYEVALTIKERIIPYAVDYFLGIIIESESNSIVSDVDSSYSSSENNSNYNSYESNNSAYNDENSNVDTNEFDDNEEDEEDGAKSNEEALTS
Experimental: as §2, §3, §4, §5, §6, §7, §8, §9

[5] = target: T1, Tryptophanyl tRNA synthetase (TrpRS) (Homo sapiens, UniProt P23381); experiment: Thermal shift (thermal melt) assay, Sypro orange; assay type: binding, H. sapiens; conditions: for ΔTm: in °C (unit assumed); for Q (quality score): ratio ΔFmelt/ΔFtotal
T1 sequence (P23381 1-471): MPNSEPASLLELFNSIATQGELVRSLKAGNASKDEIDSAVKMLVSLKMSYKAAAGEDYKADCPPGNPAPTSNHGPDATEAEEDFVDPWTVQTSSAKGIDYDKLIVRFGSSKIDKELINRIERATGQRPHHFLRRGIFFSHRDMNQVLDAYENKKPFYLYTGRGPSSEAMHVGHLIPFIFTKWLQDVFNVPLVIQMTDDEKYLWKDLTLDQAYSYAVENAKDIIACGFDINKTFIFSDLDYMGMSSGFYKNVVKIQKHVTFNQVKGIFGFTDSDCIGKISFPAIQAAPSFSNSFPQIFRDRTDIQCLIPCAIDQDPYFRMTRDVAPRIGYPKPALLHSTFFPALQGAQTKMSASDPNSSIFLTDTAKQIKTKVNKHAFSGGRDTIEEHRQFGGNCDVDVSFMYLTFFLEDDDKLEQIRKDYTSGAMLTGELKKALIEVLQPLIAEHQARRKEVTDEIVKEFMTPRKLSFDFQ
Experimental: as §2, with “The dye was excited at 465 nm and emission recorded at 580 nm using the instrument’s filters. A heating ramp of 1°C/min from 25°C to 74°C was used, and one data point acquired for each degree increment.” left out
(§10) Each melting curve was assigned a quality score (Q), the ratio of the melting-associated increase in fluorescence (ΔFmelt) to the total fluorescence range (ΔFtotal). Q = 1 is a high-quality curve, while Q = 0 indicates no thermal transition. Though an arbitrary Q value cutoff was not applied to judge curve quality, the curves were manually curated with Q values reported.
as §4, §5, §6, §7, §8, §9

[6] = target: Ubiquitin conjugating enzyme (UCE) (Plasmodium falciparum, UniProt Q8I607); experiment: Thermal shift (thermal melt) assay, Sypro orange; assay type: binding, P. falciparum; conditions: for Kd: approximate, computed from the thermal shift, read-out: KD (Approx)
Sequence of Ubiquitin conjugating enzyme (UCE) (Q8I607 1-147): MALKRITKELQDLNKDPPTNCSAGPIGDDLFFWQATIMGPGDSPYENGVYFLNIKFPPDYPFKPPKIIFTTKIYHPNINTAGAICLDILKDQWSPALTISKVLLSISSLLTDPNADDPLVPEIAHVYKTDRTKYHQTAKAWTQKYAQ
Experimental: as §2, §3, §4, §5, §6, §7, §8, §9

[7] = target: E. coli dihydrofolate reductase (DHFR) (Escherichia coli, UniProt P0ABQ4); experiment: biochemical; assay type: binding; conditions: Table S3
Sequence of E. coli dihydrofolate reductase (DHFR) (P0ABQ4 whole entry): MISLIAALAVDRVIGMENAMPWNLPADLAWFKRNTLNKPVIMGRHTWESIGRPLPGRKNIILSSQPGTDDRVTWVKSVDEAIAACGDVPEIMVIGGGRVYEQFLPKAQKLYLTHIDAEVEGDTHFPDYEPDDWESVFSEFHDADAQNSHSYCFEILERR
Experimental: as §2, with “The dye was excited at 465 nm and emission recorded at 580 nm using the instrument’s filters. A heating ramp of 1°C/min from 25°C to 74°C was used, and one data point acquired for each degree increment.” left out
as §10, §4, §5, §6, §7, §8, §9

[8] = target: T2, 1000006: catalytic domain of protein tyrosine phosphatase (2G59) (Homo sapiens, UniProt Q16827); experiment: Thermal shift (thermal melt) assay, Sypro orange; assay type: binding, H. sapiens; conditions: Table S4, protein 1000006
T2 construct: the catalytic domain of PTP from H. sapiens (PDB ID: 2G59) (1000006); New York structural genomics consortium (gift)
T2 sequence (Q16827 938-1195 limits assumed): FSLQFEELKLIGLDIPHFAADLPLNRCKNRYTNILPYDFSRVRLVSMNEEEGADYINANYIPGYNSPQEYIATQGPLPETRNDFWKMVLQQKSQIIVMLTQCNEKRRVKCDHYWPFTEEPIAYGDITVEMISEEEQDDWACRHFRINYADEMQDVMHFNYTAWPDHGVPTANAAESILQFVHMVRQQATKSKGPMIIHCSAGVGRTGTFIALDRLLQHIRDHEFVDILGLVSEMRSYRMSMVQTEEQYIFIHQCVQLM
Experimental: as §2, §3, §4, §5, §6, §7, §8, §9

[9] = thermal shift, 1 mM ligand, 10 μM protein
[10] = Table S4, TrpRS, computed from the thermal shifts obtained, read-out: KD (Approx)
[11] = approximate, computed from the thermal shift, read-out: KD
[12] = computed from the thermal shifts obtained, read-out: KD (Approx)

MIC ([2]; Enterococcus faecium, ATCC700221): 500 µg/mL (≈ 1100 µM) | VREF (MIC) ([2]; Table S3): 500 µg/mL
SMILES: CN(Cc1cnc2nc(N)nc(N)c2n1)c1ccc(C(=O)N[C@@H](CCC(=O)O)C(=O)O)cc1 [NSC 740, methotrexate]
IC50 ([1]; Homo sapiens, HCT-116, inhibitory concentration for 50% growth inhibition, read-out: HCT-116 (IC-50)): 0.048 µg/mL (≈ 0.106 µM)

Q (quality score of melting curve, ΔFmelt/ΔFtotal) [3]: 1.0 | Kd ([3]; read-out: KD): 48.5 µM | Kd ([3]; read-out: KD (Approx)): 48.5 µM | ΔTm [3, 9]: 2.95 °C
SMILES: COc1ccc(-c2cc3ccccc3[nH]2)cc1 [NSC 27032]

SMILES: O=C1C[C@@H](c2ccc(O)cc2)Oc2cc(O)cc(O)c21 [NSC 34875]
Q (quality score of melting curve, ΔFmelt/ΔFtotal) [4]: 0.6 | ΔTm ([4]; Table S5, 1 mM ligand): 1.74 °C | Kd ([4]; read-out: KD (Approx)): 224 µM

SMILES: O=C1c2cc(O)c(O)cc2OC(c2ccc(O)c(O)c2)C1O (stereo not drawn) [NSC 36398]
Q (quality score of melting curve, ΔFmelt/ΔFtotal) [4]: 0.2 | Kd ([4]; read-out: KD): 180 µM | Kd ([4]; read-out: KD (Approx)): 180 µM | ΔTm [4, 9]: 2.21 °C

Kd [5, 10]: ~9.06 µM | ΔTm ([5]; Table S4, TrpRS): 9.9 | Q (quality score) ([5]; Table S4, TrpRS): 0.4 | Kd [5, 11]: ~9.1 µM
SMILES: O=C(Nc1cccc([N+](=O)[O-])c1)c1cc2ccccc2cc1O [NSC 37168]
HCT-116 (IC-50) ([1]; inhibitory concentration for 50% growth inhibition): 1.34 µg/mL

SMILES: O=C(Nc1ccc(Cl)cc1)c1cc2c(cc1O)[nH]c1ccccc12 [NSC 50651]
Q (quality score of melting curve, ΔFmelt/ΔFtotal) [6]: 0.13 | ΔTm ([6]; Table S5, 1 mM ligand): 2.25 °C | Kd ([6]; listed as 50651): 197 µM | Kd ([6]; listed as NSC50651): 197 µM

SMILES: CCOc1ccc(NC(=O)c2cc3ccccc3cc2O)cc1 [NSC 50690]
Kd [7, 12]: ~463 µM | Q (quality score) ([7]; ratio ΔFmelt/ΔFtotal of the melting curve): 0.3 | ΔTm ([7]; thermal shift, in °C (unit assumed)): 0.23 | Kd [8, 12]: ~51.5 µM | ΔTm ([8]; in °C (unit assumed)): 4.59 | Q (quality score) ([8]; ratio ΔFmelt/ΔFtotal): 0.8 | Kd [5, 10]: ~7.74 µM | ΔTm ([5]; Table S4, TrpRS): 10.27 | Q (quality score) ([5]; Table S4, TrpRS): 0.8 | Kd [5, 11]: 7.7 µM
